Source: ChEMBL document CHEMBL1268963, “Identification of a sulfonoquinovosyldiacylglyceride from Azadirachta indica and studies on its cytotoxic activity and DNA binding properties” (Bioorg Med Chem Lett, 2010)

Experiments:
MOLT-4 = test: […] in human MOLT4 cells after 24 to 72 hrs by MTT assay; type: functional, cell-based
Calf thymus DNA [1] = test: Binding affinity to double strand calf thymus DNA assessed as melting temperature; type: nucleic-acid assay; settings: Bos taurus
Calf thymus DNA [2] = test: Binding affinity to calf thymus DNA assessed as exothermic enthalpy at 20 degC by isothermal titration […]; type: nucleic-acid assay; settings: Bos taurus

SMILES: CCCCCCCCCCCCCCCC(=O)OCC(CO[C@H]1O[C@H](CS(=O)(=O)O)[C@@H](O)[C@H](O)[C@H]1O)OC(=O)CCCCCCCCCCCCCCC (stereo partly drawn)
- IC50 (MOLT-4): 8.3 µM
- Tm (Calf thymus DNA [1]): 62 °C
- Ka (Calf thymus DNA [2]): 5.64 ×10⁴ /M
